Assay results published in ChEMBL document CHEMBL3879888, “2,4,6-triamino-1,3,5-triazine derivative” (2008).
Activity calls are given as the source filed them. No cut-off for these calls is given here.

target: T1, Voltage-gated inwardly rectifying potassium channel KCNH3 (Homo sapiens) (UniProt Q9ULD8); assay: Inhibition of BEC1 (unknown origin) expressed in dihydrofolate reductase-deficient CHO cells assessed as decrease in KCl-induced intracellular 86Rb ion release at 3 uM after 20 mins relative to control; assay type: cell-based
T1 sequence (whole entry): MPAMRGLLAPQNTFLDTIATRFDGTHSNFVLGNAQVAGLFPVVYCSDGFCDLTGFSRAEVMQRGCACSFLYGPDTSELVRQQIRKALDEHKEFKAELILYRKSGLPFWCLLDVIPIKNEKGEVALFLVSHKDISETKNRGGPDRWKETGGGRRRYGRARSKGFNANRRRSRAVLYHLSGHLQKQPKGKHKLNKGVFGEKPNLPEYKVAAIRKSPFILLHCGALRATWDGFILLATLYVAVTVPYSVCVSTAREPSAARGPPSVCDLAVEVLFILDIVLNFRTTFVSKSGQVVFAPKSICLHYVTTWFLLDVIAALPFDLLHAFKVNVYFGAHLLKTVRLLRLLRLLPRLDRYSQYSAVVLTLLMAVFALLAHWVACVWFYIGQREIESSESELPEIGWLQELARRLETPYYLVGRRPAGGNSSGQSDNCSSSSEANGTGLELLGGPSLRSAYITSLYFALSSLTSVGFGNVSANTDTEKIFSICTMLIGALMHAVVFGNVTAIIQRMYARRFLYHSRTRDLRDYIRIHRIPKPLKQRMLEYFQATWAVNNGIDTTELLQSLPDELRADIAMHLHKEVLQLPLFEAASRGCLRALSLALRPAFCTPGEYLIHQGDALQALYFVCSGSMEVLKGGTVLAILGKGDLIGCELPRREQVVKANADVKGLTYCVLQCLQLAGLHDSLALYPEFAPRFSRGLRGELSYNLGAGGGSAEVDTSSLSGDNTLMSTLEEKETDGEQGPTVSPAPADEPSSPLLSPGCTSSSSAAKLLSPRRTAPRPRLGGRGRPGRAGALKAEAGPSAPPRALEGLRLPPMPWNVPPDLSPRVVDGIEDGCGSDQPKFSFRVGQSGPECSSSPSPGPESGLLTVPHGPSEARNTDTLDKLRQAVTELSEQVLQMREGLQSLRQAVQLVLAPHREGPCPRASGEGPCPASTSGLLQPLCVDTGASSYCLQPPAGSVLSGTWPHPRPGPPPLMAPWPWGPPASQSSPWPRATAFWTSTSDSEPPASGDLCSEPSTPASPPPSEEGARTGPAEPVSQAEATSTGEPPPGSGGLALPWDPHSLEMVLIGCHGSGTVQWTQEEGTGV

Row | inhibition | SMILES
1 | 12% | O=[N+]([O-])c1cccc(Nc2nc(Nc3ccccc3)nc(Nc3ccccc3)n2)c1
2 | 29% | CCOC(=O)CCCNc1nc(Nc2ccccc2)nc(Nc2ccccc2)n1
3 | 21% | CCOC(=O)CNc1nc(Nc2ccccc2)nc(Nc2ccccc2)n1
4 | 19% | c1ccc(Nc2nc(Nc3ccccc3)nc(NC3CCCC3)n2)cc1
5 | 35% | Cc1ccc(CNc2nc(Nc3ccccc3)nc(Nc3ccccc3)n2)cc1
6 | 51% | c1ccc(Nc2nc(NCC3CC3)nc(Nc3ccccc3)n2)cc1
7 | 18% | CC(C)Nc1nc(Nc2ccccc2)nc(Nc2ccc3c(c2)CCC3)n1
8 | 22% | Cc1ccc([N+](=O)[O-])cc1Nc1nc(Nc2ccccc2)nc(Nc2ccccc2)n1
9 | 11% | CC(C)Nc1nc(Nc2ccc(Br)cc2)nc(Nc2ccc(Br)cc2)n1
10 | 37% | Cc1c(O)cccc1Nc1nc(Nc2ccccc2)nc(Nc2ccccc2)n1
11 | 33% | O=[N+]([O-])c1ccc(CCNc2nc(Nc3ccccc3)nc(Nc3ccccc3)n2)cc1
12 | 15% | c1ccc(Nc2nc(Nc3ccccc3)nc(Nc3ccc4c(c3)OCCO4)n2)cc1
13 | 33% | Brc1ccc(CNc2nc(Nc3ccccc3)nc(Nc3ccccc3)n2)cc1
14 | 33% | Fc1ccccc1CNc1nc(Nc2ccccc2)nc(Nc2ccccc2)n1
15 | 31% | COc1ccc(CNc2nc(Nc3ccccc3)nc(Nc3ccccc3)n2)cc1
16 | 17% | CSc1ccccc1Nc1nc(Nc2ccccc2)nc(Nc2ccccc2)n1
17 | 45% | Clc1ccc(CNc2nc(Nc3ccccc3)nc(Nc3ccccc3)n2)cc1
18 | 49% | CSC1COC[C@H]1Nc1nc(Nc2ccccc2)nc(Nc2ccccc2)n1 (stereo partly drawn)
19 | 10% | CSc1ccc(Nc2nc(Nc3ccc(SC)cc3)nc(NC(C)C)n2)cc1

Row | inhibition | SMILES
20 | 23% | O=C1NCCCCC1Nc1nc(Nc2ccccc2)nc(Nc2ccccc2)n1 (stereo not drawn)
21 | 40% | OCCc1ccccc1Nc1nc(Nc2ccccc2)nc(Nc2ccccc2)n1
22 | 10% | O=C1NCCCC[C@@H]1Nc1nc(Nc2ccccc2)nc(Nc2ccccc2)n1
23 | 44% | C=CCNc1nc(Nc2ccccc2)nc(Nc2ccccc2)n1
24 | 11% | CC(C)Nc1nc(Nc2ccc3c(c2)OCCO3)nc(Nc2ccc3c(c2)OCCO3)n1
25 | 31% | Cc1cc(O)ccc1Nc1nc(Nc2ccccc2)nc(Nc2ccccc2)n1
26 | 22% | NC(=O)CNc1nc(Nc2ccccc2)nc(Nc2ccccc2)n1
27 | 25% | CC(C)Nc1nc(Nc2ccccc2)nc(Nc2ccc(F)cc2)n1
28 | 10% | c1ccc(Nc2nc(NCCc3cccs3)nc(Nc3ccccc3)n2)cc1
29 | 40% | CC(C)Nc1nc(Nc2ccccc2)nc(Nc2ccc3c(c2)OCCO3)n1
30 | 50% | OC[C@@H](CNc1nc(Nc2ccccc2)nc(Nc2ccccc2)n1)c1ccccc1
31 | 23% | OC1CCCCC1Nc1nc(Nc2ccccc2)nc(Nc2ccccc2)n1 (stereo not drawn)
32 | 29% | Cc1cnc(CNc2nc(Nc3ccccc3)nc(Nc3ccccc3)n2)cn1
33 | 34% | CSC1CCC[C@H]1Nc1nc(Nc2ccccc2)nc(Nc2ccccc2)n1 (stereo partly drawn)
34 | 36% | CCOC(=O)C(C)Nc1nc(Nc2ccccc2)nc(Nc2ccccc2)n1 (stereo not drawn)
35 | 34% | Fc1cccc(CNc2nc(Nc3ccccc3)nc(Nc3ccccc3)n2)c1
36 | 27% | CC(C)Nc1nc(Nc2ccccc2)nc(Nc2ccc(Br)cc2)n1
37 | 59% | c1ccc(Nc2nc(NCc3cccnc3)nc(Nc3ccccc3)n2)cc1

tested on: Mus musculus; assay: Inhibition of electroconvulsive shock-induced amnesia in ddy mouse at 3 mg/kg, ip by passive avoidance test; assay type: functional, organism-based

Row | SMILES | inhibition
38 | Fc1ccc(Nc2nc(NCc3ccnc(F)c3)nc(Nc3ccccc3)n2)cc1 | Active
